“And” between values parts separate entries of the source, which are not always exact repeats. Equal values may be shown once. Toxic doses and inconclusive results are not listed.
Tested on: CD2F1 mice, L1210 leukemia ip, survival T/C
Assay: NCI In Vivo Anticancer Drug Screen. Data for tumor model L1210 Leukemia (intraperitoneal) in CD2F1 (CDF1) mice
Details: higher = longer survival
Procedure, shortened: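 Mice carrying a transplanted tumor received test compound or vehicle alone. The value is the measurement in the treated group divided by that in the vehicle-treated control group.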

[1] = endpoint: mean survival time, dose: 100.0 mg/kg/injection, schedule: Q04DX002 (ip), vehicle: saline with Tween-80
[2] = endpoint: mean survival time, dose: 200.0 mg/kg/injection, schedule: Q04DX002 (ip), vehicle: saline with Tween-80
[3] = endpoint: mean survival time, dose: 400.0 mg/kg/injection, schedule: Q04DX002 (ip), vehicle: saline with Tween-80
[4] = endpoint: mean survival time, dose: 100.0 mg/kg/injection, schedule: Q01DX001 (ip), vehicle: saline with Tween-80
[5] = endpoint: mean survival time, dose: 200.0 mg/kg/injection, schedule: Q01DX001 (ip), vehicle: saline with Tween-80
[6] = endpoint: mean survival time, dose: 400.0 mg/kg/injection, schedule: Q01DX001 (ip), vehicle: saline with Tween-80
[7] = endpoint: mean survival time, dose: 12.5 mg/kg/injection, schedule: Q01DX009 (ip), vehicle: saline with Tween-80
[8] = endpoint: mean survival time, dose: 25.0 mg/kg/injection, schedule: Q01DX009 (ip), vehicle: saline with Tween-80
[9] = endpoint: mean survival time, dose: 50.0 mg/kg/injection, schedule: Q01DX009 (ip), vehicle: saline with Tween-80
[10] = endpoint: mean survival time, dose: 200.0 mg/kg/injection, schedule: Q01DX009 (ip), vehicle: saline with Tween-80
[11] = endpoint: mean survival time, dose: 100.0 mg/kg/injection, schedule: Q01DX009 (ip), vehicle: saline with Tween-80
[12] = endpoint: mean survival time, dose: 400.0 mg/kg/injection, schedule: Q01DX009 (ip), vehicle: saline with Tween-80
[13] = endpoint: mean survival time, dose: 12.5 mg/kg/injection, schedule: Q04DX003 (ip), vehicle: saline with Tween-80
[14] = endpoint: mean survival time, dose: 25.0 mg/kg/injection, schedule: Q04DX003 (ip), vehicle: saline with Tween-80
[15] = endpoint: mean survival time, dose: 50.0 mg/kg/injection, schedule: Q04DX003 (ip), vehicle: saline with Tween-80

Structure (SMILES): COc1cc2c(c(OC)c1OC)-c1ccc(OC)c(=O)cc1C(=O)CC2
- T/C (endpoint: mean survival time, dose: 5.0 mg/kg/injection, schedule: Q01DX Z (ip), vehicle: saline): 121 % of control
- T/C (endpoint: mean survival time, dose: 7.0 mg/kg/injection, schedule: Q01DX Z (ip), vehicle: saline): 121 % of control
- T/C (endpoint: mean survival time, dose: 10.0 mg/kg/injection, schedule: Q01DX Z (ip), vehicle: saline): 114 % of control

Structure (SMILES): O=C(O)c1cccc2c1oc1ccccc12
- T/C [1]: 94 % of control
- T/C [2]: 94 % of control
- T/C [3]: 102 % of control

Structure (SMILES): CCC(C(=O)O)c1ccc(-c2ccccc2)cc1 (stereo unspecified)
- T/C [4]: 91 % of control
- T/C [5]: 93 % of control
- T/C [6]: 92 % of control

Structure (SMILES): CC1=CC(=NN=c2cc(C)n([O-])c(C)c2)C=C(C)[N+]1=O
- T/C [7]: 104 % of control
- T/C (endpoint: mean survival time, dose: 12.5 mg/kg/injection, schedule: Q01DX009 (ip), vehicle: suspension in saline): 108 % of control
- T/C [8]: 108 % of control
- T/C (endpoint: mean survival time, dose: 25.0 mg/kg/injection, schedule: Q01DX009 (ip), vehicle: suspension in saline): 110 % of control
- T/C [9]: 101 % of control
- T/C (endpoint: mean survival time, dose: 50.0 mg/kg/injection, schedule: Q01DX009 (ip), vehicle: suspension in saline): 106 % of control
- T/C (endpoint: mean survival time, dose: 100.0 mg/kg/injection, schedule: Q01DX009 (ip), vehicle: suspension in saline): 104 % of control
- T/C [10]: 106 % of control
- T/C (endpoint: mean survival time, dose: 200.0 mg/kg/injection, schedule: Q01DX009 (ip), vehicle: suspension in saline): 166 % of control

Structure (SMILES): Nc1cccc2c1C(=O)c1cccc(Cl)c1C2=O
- T/C [11]: 95 % of control
- T/C [10]: 106 % of control
- T/C [12]: 109 % of control

Structure (SMILES): Cc1cccc(NC(=O)COc2c(C)cc(Cl)cc2Cl)c1
- T/C [1]: 98 % of control
- T/C [2]: 94 % of control
- T/C [3]: 90 % of control

Structure (SMILES): O=[N+]([O-])c1ccc(CSc2ncnc3c2ncn3C2OC(COP(=O)(O)O)C(O)C2O)cc1 (stereo unspecified)
- T/C (endpoint: mean survival time, dose: 12.5 mg/kg/injection, schedule: Q01DX005 (ip), vehicle: water): 100 % of control
- T/C (endpoint: mean survival time, dose: 25.0 mg/kg/injection, schedule: Q01DX005 (ip), vehicle: water): 96 % of control
- T/C (endpoint: mean survival time, dose: 50.0 mg/kg/injection, schedule: Q01DX005 (ip), vehicle: water): 104 % of control
- T/C (endpoint: mean survival time, dose: 100.0 mg/kg/injection, schedule: Q01DX005 (ip), vehicle: water): 105 % of control
- T/C (endpoint: mean survival time, dose: 200.0 mg/kg/injection, schedule: Q01DX005 (ip), vehicle: water): 111 % of control

Structure (SMILES): NC(=S)c1cn(C2OC(CO)C(O)C2O)c2ncnc(N)c12 (stereo unspecified)
- T/C (endpoint: median survival time, dose: 2.5 mg/kg/injection, schedule: Q01DX009 (ip), vehicle: suspension in saline): 158 % of control
- T/C (endpoint: median survival time, dose: 5.0 mg/kg/injection, schedule: Q01DX009 (ip), vehicle: suspension in saline): 175 % of control
- T/C (endpoint: median survival time, dose: 10.0 mg/kg/injection, schedule: Q01DX009 (ip), vehicle: suspension in saline): 91 % of control

Structure (SMILES): C1CCC2(CC1)OCCS2
- T/C (endpoint: mean survival time, dose: 100.0 mg/kg/injection, schedule: Q01DX001 (ip), vehicle: saline): 96 % of control
- T/C (endpoint: mean survival time, dose: 200.0 mg/kg/injection, schedule: Q01DX001 (ip), vehicle: saline): 94 % of control

Structure (SMILES): NC(=S)N/N=C/c1cccc(CC(O)(C(F)(F)F)C(F)(F)F)n1
- T/C [13]: 97 % of control
- T/C [14]: 94 % of control
- T/C [15]: 96 % of control

Structure (SMILES): C/C(=N/N)c1ccc(Br)cc1
- T/C (endpoint: mean survival time, dose: 6.25 mg/kg/injection, schedule: Q01DX009 (ip), vehicle: saline with Tween-80): 106 % of control
- T/C (endpoint: mean survival time, dose: 6.25 mg/kg/injection, schedule: Q04DX003 (ip), vehicle: saline with Tween-80): 101 % of control
- T/C [7]: 116 % of control
- T/C [13]: 98 % of control
- T/C [8]: 110 % of control
- T/C [14]: 95 % of control

Structure (SMILES): O=C(NCCO)NCCO
- T/C (endpoint: mean survival time, dose: 100.0 mg/kg/injection, schedule: Q01DX009 (ip), vehicle: saline sonified): 110 % of control
- T/C (endpoint: mean survival time, dose: 200.0 mg/kg/injection, schedule: Q01DX009 (ip), vehicle: saline sonified): 104 % of control
- T/C (endpoint: mean survival time, dose: 400.0 mg/kg/injection, schedule: Q01DX009 (ip), vehicle: saline sonified): 110 % of control

Structure (SMILES): c1ccc2c(c1)sc1cc3c(cc12)CCCC3
- T/C (endpoint: mean survival time, dose: 7.9 mg/kg/injection, schedule: Q04DX003 (ip), vehicle: other): 93 % of control
- T/C (endpoint: mean survival time, dose: 15.7 mg/kg/injection, schedule: Q04DX003 (ip), vehicle: other): 93 % of control
- T/C (endpoint: mean survival time, dose: 31.3 mg/kg/injection, schedule: Q04DX003 (ip), vehicle: other): 93 % of control
- T/C (endpoint: mean survival time, dose: 62.5 mg/kg/injection, schedule: Q04DX003 (ip), vehicle: other): 93 % of control
- T/C (endpoint: mean survival time, dose: 125.0 mg/kg/injection, schedule: Q04DX003 (ip), vehicle: other): 93 % of control

Structure (SMILES): Nc1cccc(OCc2nc(N)nc(N)c2-c2ccc(Cl)cc2)c1
- T/C (endpoint: mean survival time, dose: 37.5 mg/kg/injection, schedule: Q01DX001 (ip), vehicle: saline): 96 % of control
- T/C (endpoint: mean survival time, dose: 75.0 mg/kg/injection, schedule: Q01DX001 (ip), vehicle: saline): 100 % of control
- T/C (endpoint: mean survival time, dose: 150.0 mg/kg/injection, schedule: Q01DX001 (ip), vehicle: saline): 91 % of control

Structure (SMILES): O=NN(CCCl)C(=O)NC1[C@H](O)CCC[C@@H]1O (stereo partly specified)
- T/C (endpoint: median survival time, dose: 0.63 mg/kg/injection, schedule: Q01DX009 (ip), vehicle: saline): 167 % of control
- T/C (endpoint: median survival time, dose: 1.25 mg/kg/injection, schedule: Q01DX009 (ip), vehicle: saline): 229 % of control and 108 % of control
- T/C (endpoint: median survival time, dose: 2.5 mg/kg/injection, schedule: Q01DX009 (ip), vehicle: saline): 348 % of control and 365 % of control
- T/C (endpoint: median survival time, dose: 5.0 mg/kg/injection, schedule: Q01DX009 (ip), vehicle: saline): 348 % of control and 365 % of control
- T/C (endpoint: median survival time, dose: 10.0 mg/kg/injection, schedule: Q01DX009 (ip), vehicle: saline): 195 % of control and 218 % of control
- T/C (endpoint: median survival time, dose: 20.0 mg/kg/injection, schedule: Q01DX009 (ip), vehicle: saline): 93 % of control and 101 % of control

Structure (SMILES): O=C(OCC(OC(=O)c1ccccc1)C1OC(OC(=O)c2ccccc2)C(OC(=O)c2ccccc2)C1OC(=O)c1ccccc1)c1ccccc1 (stereo unspecified)
- T/C (endpoint: mean survival time, dose: 100.0 mg/kg/injection, schedule: Q01DX001 (ip), vehicle: Klucel (hydroxypropylcellulose) (HPC)): 88 % of control
- T/C (endpoint: mean survival time, dose: 200.0 mg/kg/injection, schedule: Q01DX001 (ip), vehicle: Klucel (hydroxypropylcellulose) (HPC)): 95 % of control
- T/C (endpoint: mean survival time, dose: 400.0 mg/kg/injection, schedule: Q01DX001 (ip), vehicle: Klucel (hydroxypropylcellulose) (HPC)): 95 % of control

Structure (SMILES): CC(=O)OC1CS(=O)(=O)CC1Br (stereo unspecified)
- T/C [4]: 103 % of control
- T/C [5]: 98 % of control
- T/C [6]: 98 % of control

Structure (SMILES): CC(=O)OCC1OC(n2ccc(O)cc2=O)C(OC(C)=O)C1OC(C)=O (stereo unspecified)
- T/C (endpoint: median survival time, dose: 44.0 mg/kg/injection, schedule: Q01DX009 (ip), vehicle: saline + alcohol): 154 % of control
- T/C (endpoint: median survival time, dose: 67.0 mg/kg/injection, schedule: Q01DX009 (ip), vehicle: saline + alcohol): 164 % of control
- T/C (endpoint: median survival time, dose: 100.0 mg/kg/injection, schedule: Q01DX009 (ip), vehicle: saline + alcohol): 174 % of control
- T/C (endpoint: median survival time, dose: 150.0 mg/kg/injection, schedule: Q01DX009 (ip), vehicle: saline + alcohol): 165 % of control

Structure (SMILES): ClC1CC[N-]CC1.ClC1CC[N-]CC1.O=C(O)CC(=O)O.[Pt+2]
- T/C [7]: 96 % of control
- T/C [8]: 94 % of control
- T/C [9]: 102 % of control
- T/C [11]: 104 % of control
- T/C [10]: 96 % of control

Structure (SMILES): O=C1OC(=O)C2C1CC1C(=O)OC(=O)C12 (stereo unspecified)
- T/C (endpoint: mean survival time, dose: 50.0 mg/kg/injection, schedule: Q04DX003 (ip), vehicle: Klucel (hydroxypropylcellulose) (HPC)): 97 % of control
- T/C (endpoint: mean survival time, dose: 100.0 mg/kg/injection, schedule: Q04DX003 (ip), vehicle: Klucel (hydroxypropylcellulose) (HPC)): 100 % of control
- T/C (endpoint: mean survival time, dose: 200.0 mg/kg/injection, schedule: Q04DX003 (ip), vehicle: Klucel (hydroxypropylcellulose) (HPC)): 96 % of control

Structure (SMILES): c1ccc2c(c1)[nH]c1nc3ccncc3nc12
- T/C (endpoint: mean survival time, dose: 50.0 mg/kg/injection, schedule: Q01DX009 (ip), vehicle: saline): 96 % of control
- T/C (endpoint: mean survival time, dose: 100.0 mg/kg/injection, schedule: Q01DX009 (ip), vehicle: saline): 104 % of control
- T/C (endpoint: mean survival time, dose: 200.0 mg/kg/injection, schedule: Q01DX009 (ip), vehicle: saline): 95 % of control

Structure (SMILES): CCOC(=O)/C(=C\c1ccccc1Cl)C(C)=O
- T/C [14]: 103 % of control
- T/C [15]: 96 % of control
- T/C [11]: 103 % of control
- T/C (endpoint: mean survival time, dose: 100.0 mg/kg/injection, schedule: Q04DX003 (ip), vehicle: saline with Tween-80): 96 % of control
- T/C [10]: 108 % of control
- T/C (endpoint: mean survival time, dose: 200.0 mg/kg/injection, schedule: Q04DX003 (ip), vehicle: saline with Tween-80): 107 % of control
- T/C [12]: 87 % of control

Structure (SMILES): Cc1c2c(cc3c1CCC1(C)C3CCC1C(C)/C=C/C(C)C(C)C)CC(O)CC2 (stereo unspecified)
- T/C [4]: 92 % of control
- T/C [5]: 95 % of control
- T/C [6]: 92 % of control

From PubChem BioAssay AID256 (DTP/NCI, 2004)
